Columns and labels:
Type in all cases: functional
CCRF-CEM = assay: Growth inhibition of human CCRF-CEM cells incubated for 48 hrs by sulforhodamine B assay
NCI-H460 = assay: Growth inhibition of human NCI-H460 cells incubated for 48 hrs by sulforhodamine B assay; conditions: NCI-H460, 48 h
NCI-H522 = assay: Growth inhibition of human NCI-H522 cells incubated for 48 hrs by sulforhodamine B assay; conditions: NCI-H522, 48 h
SNB-19 [1] = assay: Growth inhibition of human SNB19 cells incubated for 48 hrs by sulforhodamine B assay; conditions: SNB-19, 48 h
RXF 393 = assay: Growth inhibition of human RXF393 cells incubated for 48 hrs by sulforhodamine B assay; conditions: RXF 393, 48 h
UO-31 [2] = assay: Growth inhibition of human UO31 cells incubated for 48 hrs by sulforhodamine B assay; conditions: UO-31, 48 h
MDA-MB-231 [3] = assay: Growth inhibition of human MDA-MB-231 cells incubated for 48 hrs by sulforhodamine B assay; conditions: MDA-MB-231, 48 h
HT-29 = assay: Growth inhibition of human HT-29 cells assessed as cell growth at 0.01 uM incubated for 48 hrs by sulforhodamine B assay relative to control; conditions: HT-29, 48 h, read-out: Activity
SF-539 [4] = assay: Growth inhibition of human SF539 cells assessed as cell growth at 0.01 uM incubated for 48 hrs by sulforhodamine B assay relative to control; conditions: SF-539, 48 h, read-out: Activity
786-0 [5] = assay: Growth inhibition of human 786-0 cells assessed as cell growth at 0.01 uM incubated for 48 hrs by sulforhodamine B assay relative to control; conditions: 786-0, 48 h, read-out: Activity
MDA-MB-231 [6] = assay: Growth inhibition of human MDA-MB-231 cells assessed as cell growth at 0.01 uM incubated for 48 hrs by sulforhodamine B assay relative to control; conditions: MDA-MB-231, 48 h, read-out: Activity
SF-539 [7] = assay: Growth inhibition of human SF539 cells assessed as cell growth at 0.1 uM incubated for 48 hrs by sulforhodamine B assay relative to control; conditions: SF-539, 48 h, read-out: Activity
SNB-19 [8] = assay: Growth inhibition of human SNB19 cells assessed as cell growth at 0.1 uM incubated for 48 hrs by sulforhodamine B assay relative to control; conditions: SNB-19, 48 h, read-out: Activity
U-251 = assay: Growth inhibition of human U251 cells assessed as cell growth at 0.1 uM incubated for 48 hrs by sulforhodamine B assay relative to control; conditions: U-251, 48 h, read-out: Activity
Malme-3M = assay: Growth inhibition of human MALME-3M cells assessed as cell growth at 0.1 uM incubated for 48 hrs by sulforhodamine B assay relative to control; conditions: read-out: Activity
M14 = assay: Growth inhibition of human M14 cells assessed as cell growth at 0.1 uM incubated for 48 hrs by sulforhodamine B assay relative to control; conditions: M14, 48 h, read-out: Activity
786-0 [9] = assay: Growth inhibition of human 786-0 cells assessed as cell growth at 0.1 uM incubated for 48 hrs by sulforhodamine B assay relative to control; conditions: 786-0, 48 h, read-out: Activity
ACHN = assay: Growth inhibition of human ACHN cells assessed as cell growth at 0.1 uM incubated for 48 hrs by sulforhodamine B assay relative to control; conditions: read-out: Activity
UO-31 [10] = assay: Growth inhibition of human UO31 cells assessed as cell growth at 0.1 uM incubated for 48 hrs by sulforhodamine B assay relative to control; conditions: UO-31, 48 h, read-out: Activity
MCF7 = assay: Growth inhibition of human MCF7 cells assessed as cell growth at 0.1 uM incubated for 48 hrs by sulforhodamine B assay relative to control; conditions: MCF7, 48 h, read-out: Activity
MDA-MB-231 [11] = assay: Growth inhibition of human MDA-MB-231 cells assessed as cell growth at 0.1 uM incubated for 48 hrs by sulforhodamine B assay relative to control; conditions: MDA-MB-231, 48 h, read-out: Activity
SR = assay: Growth inhibition of human SR cells assessed as cell growth at 1 uM incubated for 48 hrs by sulforhodamine B assay relative to control; conditions: read-out: Activity
A549 = assay: Growth inhibition of human A549/ATCC cells assessed as cell growth at 1 uM incubated for 48 hrs by sulforhodamine B assay relative to control; conditions: A549, 48 h, read-out: Activity
NCI-H23 = assay: Growth inhibition of human NCI-H23 cells assessed as cell growth at 1 uM incubated for 48 hrs by sulforhodamine B assay relative to control; conditions: NCI-H23, 48 h, read-out: Activity
COLO 205 = assay: Growth inhibition of human COLO205 cells assessed as cell growth at 1 uM incubated for 48 hrs by sulforhodamine B assay relative to control; conditions: COLO 205, 48 h, read-out: Activity
HCT-116 = assay: Growth inhibition of human HCT116 cells assessed as cell growth at 1 uM incubated for 48 hrs by sulforhodamine B assay relative to control; conditions: HCT-116, 48 h, read-out: Activity
LOX IMVI = assay: Growth inhibition of human LOXIMVI cells assessed as cell growth at 1 uM incubated for 48 hrs by sulforhodamine B assay relative to control; conditions: read-out: Activity
OVCAR-5 = assay: Growth inhibition of human OVCAR5 cells assessed as cell growth at 1 uM incubated for 48 hrs by sulforhodamine B assay relative to control; conditions: OVCAR-5, 48 h, read-out: Activity
SK-OV-3 = assay: Growth inhibition of human SKOV3 cells assessed as cell growth at 1 uM incubated for 48 hrs by sulforhodamine B assay relative to control; conditions: SK-OV-3, 48 h, read-out: Activity
UO-31 [12] = assay: Growth inhibition of human UO31 cells assessed as cell growth at 1 uM incubated for 48 hrs by sulforhodamine B assay relative to control; conditions: UO-31, 48 h, read-out: Activity
[13] = read-out: LC50 (the source's name)
[14] = read-out: pLC50 (the source's name) (converted)

c1ccc2[nH]c(-c3ccc(-c4nccc5c4[nH]c4ccccc45)cc3)nc2c1
GI50 (CCRF-CEM; read-out: GI50): 3.12 µM | CC50 (CCRF-CEM; [13]): > 1 µM | TGI (CCRF-CEM; read-out: TGI): 9.12 µM | GI50 (CCRF-CEM; read-out: pGI50 (converted)): 3.09 µM | CC50 (CCRF-CEM; [14]): > 100 µM | TGI (CCRF-CEM; read-out: pTGI (converted)): 9.12 µM | GI50 (NCI-H460; read-out: GI50): 3.03 µM | CC50 (NCI-H460; [13]): > 1 µM | TGI (NCI-H460; read-out: TGI): 9.8 µM | GI50 (NCI-H460; read-out: pGI50 (converted)): 3.02 µM | CC50 (NCI-H460; [14]): > 100 µM | TGI (NCI-H460; read-out: pTGI (converted)): 9.77 µM | GI50 (NCI-H522; read-out: GI50): 2.06 µM | CC50 (NCI-H522; [13]): > 1 µM | TGI (NCI-H522; read-out: TGI): 5.04 µM | GI50 (NCI-H522; read-out: pGI50 (converted)): 2.04 µM | CC50 (NCI-H522; [14]): > 100 µM | TGI (NCI-H522; read-out: pTGI (converted)): 5.01 µM | GI50 (SNB-19 [1]; read-out: GI50): 4.21 µM | CC50 (SNB-19 [1]; [13]): > 1 µM | GI50 (SNB-19 [1]; read-out: pGI50 (converted)): 4.17 µM | CC50 (SNB-19 [1]; [14]): > 100 µM | TGI (SNB-19 [1]; read-out: pTGI (converted)): 30.2 µM | GI50 (RXF 393; read-out: GI50): 1.93 µM | CC50 (RXF 393; [13]): 6.45 µM | TGI (RXF 393; read-out: TGI): 3.53 µM | GI50 (RXF 393; read-out: pGI50 (converted)): 1.95 µM | CC50 (RXF 393; [14]): 6.46 µM | TGI (RXF 393; read-out: pTGI (converted)): 3.55 µM | GI50 (UO-31 [2]; read-out: GI50): 1.69 µM | CC50 (UO-31 [2]; [13]): 6.32 µM | TGI (UO-31 [2]; read-out: TGI): 3.27 µM | GI50 (UO-31 [2]; read-out: pGI50 (converted)): 1.7 µM | CC50 (UO-31 [2]; [14]): 6.31 µM | TGI (UO-31 [2]; read-out: pTGI (converted)): 3.24 µM | GI50 (MDA-MB-231 [3]; read-out: GI50): 2.39 µM | TGI (MDA-MB-231 [3]; read-out: TGI): 5.83 µM | GI50 (MDA-MB-231 [3]; read-out: pGI50 (converted)): 2.4 µM | CC50 (MDA-MB-231 [3]; [14]): > 100 µM | TGI (MDA-MB-231 [3]; read-out: pTGI (converted)): 5.89 µM | growth at 0.01 µM (HT-29): 100% | growth at 0.01 µM (SF-539 [4]): 96% | growth at 0.01 µM (786-0 [5]): 89% | growth at 0.01 µM (MDA-MB-231 [6]): 90% | growth at 0.1 µM (SF-539 [7]): 98% | growth at 0.1 µM (SNB-19 [8]): 96% | growth at 0.1 µM (U-251): 104% | growth at 0.1 µM (Malme-3M): 94% | growth at 0.1 µM (M14): 98% | growth at 0.1 µM (786-0 [9]): 92% | growth at 0.1 µM (ACHN): 98% | growth at 0.1 µM (UO-31 [10]): 91% | growth at 0.1 µM (MCF7): 96% | growth at 0.1 µM (MDA-MB-231 [11]): 94% | growth at 1 µM (SR): 88% | growth at 1 µM (A549): 96% | growth at 1 µM (NCI-H23): 88% | growth at 1 µM (COLO 205): 93% | growth at 1 µM (HCT-116): 90% | growth at 1 µM (LOX IMVI): 81% | growth at 1 µM (OVCAR-5): 96% | growth at 1 µM (SK-OV-3): 100% | growth at 1 µM (UO-31 [12]): 90%

Source: ChEMBL document CHEMBL4004838, “Design and synthesis of novel phenyl -1, 4-beta-carboline-hybrid molecules as potential anticancer agents” (Eur J Med Chem, 2017)
